Tested on: Asian Soybean Rust (ASR)
Experiment: Soybean field trial in Brazil, ascaroside with Chlorothalonil and APROACH POWER
Assay type: in vivo
Conditions: ascaroside alone, 250 mg/ac, foliar spray, relative to untreated controls

Which “protection against Asian Soybean Rust” value does the source give for `CC1OC(O[C@H](C)CCCCCCCCC(=O)O)C(O)CC1O` (stereo partly shown) [ascr #18] here?
The value was 20-40%.
